The values that follow come from patent US20040070093A1, “Process for preparing microparticles through phase inversion phenomena” (Brown University Research Foundation, priority 1995, published 2004).

This data set can be described thus: in vivo. The note with it: rat, serum, po, 25 mg/kg.

Experimental: Dicumarol containing microspheres were produced as described above in Example 2, subsection 1. Equal doses of dicumarol, spray dried dicumarol and polyanhydride (FA:SA) 20:80 encapsulated dicumarol (25 mg drug/kg body weight) suspended in 1.5 ml maple syrup were fed to catheterized rats (250-350 g). Blood samples were taken at regular intervals and serum was assayed for dicumarol concentrations using a UV spectrophotometric method.

One may read the AUC as concentration integrated over time. Higher therefore signals high exposure. The Cmax is the highest concentration seen after dosing. A word on the Tmax: it is the time at which the peak concentration occurs. As a reminder, the half-life is the time in which the quantity being followed falls by half. On to `O=c1oc2ccccc2c(O)c1Cc1c(O)c2ccccc2oc1=O` [SPRAY DICUMAROL CONTROL, dicumarol], for which the AUC came out at 232 ± 19.2 µg·h/mL, the highest level (Cmax) was 17900 ± 1220 ng/mL, the Tmax is 9.42 ± 1.36 h and the half-life is 16.2 ± 0.87 h.
